Assay [1] has as its target T1, cGMP-dependent protein kinase 1 (Homo sapiens) (UniProt Q13976).
T1 sequence (whole entry): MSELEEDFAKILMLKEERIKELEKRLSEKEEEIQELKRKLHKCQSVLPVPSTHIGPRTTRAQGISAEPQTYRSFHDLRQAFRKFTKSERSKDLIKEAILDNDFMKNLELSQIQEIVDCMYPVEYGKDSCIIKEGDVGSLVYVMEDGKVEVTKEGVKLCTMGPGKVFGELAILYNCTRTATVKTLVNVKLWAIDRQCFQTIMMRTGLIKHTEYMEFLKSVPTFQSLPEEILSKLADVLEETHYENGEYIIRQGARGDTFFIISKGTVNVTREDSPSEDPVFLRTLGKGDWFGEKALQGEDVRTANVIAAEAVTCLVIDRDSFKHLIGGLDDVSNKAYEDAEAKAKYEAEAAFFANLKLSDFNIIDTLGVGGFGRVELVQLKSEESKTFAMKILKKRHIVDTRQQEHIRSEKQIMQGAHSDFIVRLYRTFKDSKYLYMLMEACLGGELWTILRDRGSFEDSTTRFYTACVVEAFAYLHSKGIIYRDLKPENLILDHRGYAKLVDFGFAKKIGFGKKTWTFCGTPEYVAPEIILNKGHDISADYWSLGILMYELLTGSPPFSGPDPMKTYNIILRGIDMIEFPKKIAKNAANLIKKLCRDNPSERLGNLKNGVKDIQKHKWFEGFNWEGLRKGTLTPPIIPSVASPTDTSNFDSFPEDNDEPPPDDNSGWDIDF
Briefly: Selectivity interaction (Upstate Kinase Profiler service (Millipore)) EUB0000056c PRKG1. The following applies: at 1 µM.

For assay [2], the target named is CDK9/Cyclin K (Homo sapiens) (UniProt P50750+O75909). Briefly: (§1) Selectivity interaction (ProQinase) EUB0000171b CDK9. The format is protein-complex assay.
Assay [3] concerns the target CDK9/cyclin T1 (Homo sapiens) (UniProt O60563+P50750). The description is as §1. The class given is protein-complex assay.
The target in assay [4] is T2, Ephrin type-A receptor 8 (Homo sapiens) (UniProt P29322).
T2 sequence (whole entry): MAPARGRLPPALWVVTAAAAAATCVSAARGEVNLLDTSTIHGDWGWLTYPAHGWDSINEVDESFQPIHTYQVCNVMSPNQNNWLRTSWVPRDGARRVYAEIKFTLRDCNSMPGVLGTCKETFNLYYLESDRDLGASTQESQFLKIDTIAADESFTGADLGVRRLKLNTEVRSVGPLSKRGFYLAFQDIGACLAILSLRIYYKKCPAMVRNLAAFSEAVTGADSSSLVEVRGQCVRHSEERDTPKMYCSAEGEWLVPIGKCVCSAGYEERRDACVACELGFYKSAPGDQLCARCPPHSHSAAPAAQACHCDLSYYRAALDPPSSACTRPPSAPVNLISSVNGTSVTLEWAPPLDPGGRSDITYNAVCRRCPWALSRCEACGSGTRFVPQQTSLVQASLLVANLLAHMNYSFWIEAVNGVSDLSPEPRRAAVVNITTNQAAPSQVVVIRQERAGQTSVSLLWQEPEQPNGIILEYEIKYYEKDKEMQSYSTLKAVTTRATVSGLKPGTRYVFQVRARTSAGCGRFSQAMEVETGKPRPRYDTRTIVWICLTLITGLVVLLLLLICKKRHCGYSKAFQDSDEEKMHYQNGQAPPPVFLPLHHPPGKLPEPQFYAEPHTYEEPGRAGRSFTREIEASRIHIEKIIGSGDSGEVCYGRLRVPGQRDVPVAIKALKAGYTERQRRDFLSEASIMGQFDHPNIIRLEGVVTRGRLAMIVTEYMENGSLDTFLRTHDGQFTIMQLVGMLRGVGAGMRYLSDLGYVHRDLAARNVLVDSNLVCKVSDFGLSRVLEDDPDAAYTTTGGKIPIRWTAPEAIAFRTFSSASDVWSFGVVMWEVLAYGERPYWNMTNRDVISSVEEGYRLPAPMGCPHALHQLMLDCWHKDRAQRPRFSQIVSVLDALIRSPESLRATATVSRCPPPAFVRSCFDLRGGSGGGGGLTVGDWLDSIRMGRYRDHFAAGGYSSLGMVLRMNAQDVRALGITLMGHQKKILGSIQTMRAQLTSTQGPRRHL
As to the kind of experiment: Selectivity interaction (ProQinase) EUB0000171b EPHA8.

The target in assay [5] is Angiopoietin-1 receptor (Homo sapiens) (UniProt Q02763). Briefly: Selectivity interaction (KinomeScan (DiscoverX)) EUB0000666a TEK. The following applies: at 10 µM.
Angiopoietin-1 receptor (Homo sapiens), sequence (Q02763 whole entry): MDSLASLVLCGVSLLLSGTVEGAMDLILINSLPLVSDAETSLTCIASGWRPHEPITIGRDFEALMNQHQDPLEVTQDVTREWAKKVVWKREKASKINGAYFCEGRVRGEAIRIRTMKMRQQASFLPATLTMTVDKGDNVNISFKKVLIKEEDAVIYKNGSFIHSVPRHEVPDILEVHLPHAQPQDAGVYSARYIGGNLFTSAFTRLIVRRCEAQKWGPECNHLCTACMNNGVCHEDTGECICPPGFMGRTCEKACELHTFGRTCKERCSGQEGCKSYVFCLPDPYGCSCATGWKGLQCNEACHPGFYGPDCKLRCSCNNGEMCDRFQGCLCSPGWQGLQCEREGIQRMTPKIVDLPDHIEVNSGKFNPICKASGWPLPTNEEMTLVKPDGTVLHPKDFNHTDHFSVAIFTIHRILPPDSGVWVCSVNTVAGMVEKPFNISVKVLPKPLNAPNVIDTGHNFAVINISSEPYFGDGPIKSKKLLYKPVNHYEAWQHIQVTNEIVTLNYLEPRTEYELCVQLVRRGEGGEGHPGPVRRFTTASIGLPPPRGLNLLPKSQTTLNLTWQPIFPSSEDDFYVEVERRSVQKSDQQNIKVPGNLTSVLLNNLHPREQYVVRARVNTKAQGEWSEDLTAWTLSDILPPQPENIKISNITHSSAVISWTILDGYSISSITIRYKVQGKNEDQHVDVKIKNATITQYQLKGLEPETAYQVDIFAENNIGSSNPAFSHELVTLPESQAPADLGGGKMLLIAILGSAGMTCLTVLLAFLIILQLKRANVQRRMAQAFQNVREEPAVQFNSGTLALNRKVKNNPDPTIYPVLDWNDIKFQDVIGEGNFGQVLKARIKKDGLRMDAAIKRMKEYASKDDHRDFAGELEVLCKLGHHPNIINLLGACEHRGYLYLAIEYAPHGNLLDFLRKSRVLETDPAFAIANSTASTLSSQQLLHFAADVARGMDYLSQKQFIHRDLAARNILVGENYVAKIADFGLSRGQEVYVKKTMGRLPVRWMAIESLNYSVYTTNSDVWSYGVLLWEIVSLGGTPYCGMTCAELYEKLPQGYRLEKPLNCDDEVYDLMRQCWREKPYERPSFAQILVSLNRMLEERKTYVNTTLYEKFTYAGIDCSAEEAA
In assay [6] the test system is Platelet-derived growth factor receptor alpha (Homo sapiens), P16234 [D842V]. As to the kind of experiment: (§2) Selectivity interaction (SelectScreen profiling (Invitrogen)) EUB0000607a PDGFRA. The following applies: at 2 µM.
Platelet-derived growth factor receptor alpha (Homo sapiens), P16234 [D842V], sequence (P16234 whole entry D842V): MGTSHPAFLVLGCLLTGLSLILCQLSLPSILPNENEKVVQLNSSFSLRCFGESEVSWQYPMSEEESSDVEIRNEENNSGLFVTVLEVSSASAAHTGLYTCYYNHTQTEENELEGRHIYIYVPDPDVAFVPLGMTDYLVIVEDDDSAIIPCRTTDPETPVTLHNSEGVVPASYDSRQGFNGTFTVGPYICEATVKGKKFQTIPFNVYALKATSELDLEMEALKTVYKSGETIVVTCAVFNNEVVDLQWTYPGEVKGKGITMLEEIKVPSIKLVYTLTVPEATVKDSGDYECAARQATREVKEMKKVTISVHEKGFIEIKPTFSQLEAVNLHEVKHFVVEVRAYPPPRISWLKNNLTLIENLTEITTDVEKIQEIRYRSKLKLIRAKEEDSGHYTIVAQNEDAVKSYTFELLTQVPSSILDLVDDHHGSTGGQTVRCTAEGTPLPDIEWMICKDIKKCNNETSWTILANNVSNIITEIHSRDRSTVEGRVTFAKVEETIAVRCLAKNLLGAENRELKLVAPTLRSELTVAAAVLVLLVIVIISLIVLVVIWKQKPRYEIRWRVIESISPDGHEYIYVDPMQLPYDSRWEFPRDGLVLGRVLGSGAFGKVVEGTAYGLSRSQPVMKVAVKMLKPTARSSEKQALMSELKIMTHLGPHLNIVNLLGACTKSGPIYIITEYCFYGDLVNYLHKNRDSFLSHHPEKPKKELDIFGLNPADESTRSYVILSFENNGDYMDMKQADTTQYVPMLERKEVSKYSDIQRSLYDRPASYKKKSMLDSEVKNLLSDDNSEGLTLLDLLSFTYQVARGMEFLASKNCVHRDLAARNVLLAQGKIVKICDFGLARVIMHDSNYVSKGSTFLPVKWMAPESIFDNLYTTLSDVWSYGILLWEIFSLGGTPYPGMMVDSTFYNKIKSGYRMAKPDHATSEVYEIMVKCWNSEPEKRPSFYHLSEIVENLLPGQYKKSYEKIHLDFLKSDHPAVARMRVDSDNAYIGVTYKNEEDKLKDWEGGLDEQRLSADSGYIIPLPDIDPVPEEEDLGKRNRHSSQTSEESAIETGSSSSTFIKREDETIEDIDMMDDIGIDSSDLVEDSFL
In assay [7] the test system is Platelet-derived growth factor receptor alpha (Homo sapiens), P16234 [T674I]. The assay is described as §2. The following applies: at 2 µM.
Platelet-derived growth factor receptor alpha (Homo sapiens), P16234 [T674I], sequence (P16234 whole entry T674I): as the sequence (P16234 whole entry D842V) above, with T674I, V842D counted along it
Assay [8] concerns Platelet-derived growth factor receptor alpha (Homo sapiens), P16234 [V561D]. The description is as §2. The following applies: at 2 µM.
Platelet-derived growth factor receptor alpha (Homo sapiens), P16234 [V561D], sequence (P16234 whole entry V561D): as the sequence (P16234 whole entry D842V) above, with V561D, V842D counted along it
Assay [9] deals with Platelet-derived growth factor receptor alpha (Homo sapiens, UniProt P16234). The description is as §2. The following applies: at 2 µM.
Platelet-derived growth factor receptor alpha, sequence (P16234 whole entry): as the sequence (P16234 whole entry D842V) above, with V842D counted along it
Assay [10] deals with Phosphatidylinositol 3-kinase catalytic subunit type 3 (Homo sapiens, UniProt Q8NEB9). As to the kind of experiment: Selectivity interaction (ActivX KiNativ screen (kinase selectivity in THP-1 cell lysates)) EUB0000639a PIK3C3. The following applies: lysate, at 1 µM. The class given is subcellular.
Phosphatidylinositol 3-kinase catalytic subunit type 3, sequence (Q8NEB9 whole entry): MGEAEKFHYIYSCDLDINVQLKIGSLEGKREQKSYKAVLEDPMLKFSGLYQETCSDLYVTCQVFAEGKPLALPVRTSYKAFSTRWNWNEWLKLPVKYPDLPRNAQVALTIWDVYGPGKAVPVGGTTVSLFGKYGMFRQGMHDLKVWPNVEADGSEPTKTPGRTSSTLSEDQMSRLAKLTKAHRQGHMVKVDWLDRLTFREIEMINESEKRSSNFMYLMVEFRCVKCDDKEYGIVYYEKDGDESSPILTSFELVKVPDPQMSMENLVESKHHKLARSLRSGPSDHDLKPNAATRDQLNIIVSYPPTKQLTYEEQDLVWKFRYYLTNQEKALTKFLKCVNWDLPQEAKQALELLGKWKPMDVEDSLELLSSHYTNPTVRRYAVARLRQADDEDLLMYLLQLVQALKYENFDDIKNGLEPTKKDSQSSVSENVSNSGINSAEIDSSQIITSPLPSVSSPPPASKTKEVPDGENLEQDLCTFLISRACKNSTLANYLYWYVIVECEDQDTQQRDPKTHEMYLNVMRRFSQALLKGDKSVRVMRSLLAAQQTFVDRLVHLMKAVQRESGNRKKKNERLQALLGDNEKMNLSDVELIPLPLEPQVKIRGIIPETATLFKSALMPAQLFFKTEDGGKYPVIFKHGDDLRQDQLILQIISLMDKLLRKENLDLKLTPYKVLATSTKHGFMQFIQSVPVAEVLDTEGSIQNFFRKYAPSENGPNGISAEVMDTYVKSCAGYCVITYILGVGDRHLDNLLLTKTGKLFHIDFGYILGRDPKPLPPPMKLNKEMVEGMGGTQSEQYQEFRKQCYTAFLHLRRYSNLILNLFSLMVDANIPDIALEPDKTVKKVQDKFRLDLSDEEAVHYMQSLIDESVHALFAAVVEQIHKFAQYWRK
Assay [11] addresses Tyrosine-protein kinase Fgr (Homo sapiens) (UniProt P09769). Briefly: Selectivity interaction (KinomeScan (DiscoverX)) EUB0000229b FGR. The following applies: at 10 µM.
In assay [12] the target is Histone acetyltransferase KAT2A (Homo sapiens) (UniProt Q92830). Briefly: Selectivity interaction (Human bromodomain panel (DSF assay)) EUB0000233b KAT2A. (DSF heats the sample and reads unfolding from a dye or from intrinsic fluorescence.)
Histone acetyltransferase KAT2A (Homo sapiens), sequence (Q92830 2-837 limits assumed): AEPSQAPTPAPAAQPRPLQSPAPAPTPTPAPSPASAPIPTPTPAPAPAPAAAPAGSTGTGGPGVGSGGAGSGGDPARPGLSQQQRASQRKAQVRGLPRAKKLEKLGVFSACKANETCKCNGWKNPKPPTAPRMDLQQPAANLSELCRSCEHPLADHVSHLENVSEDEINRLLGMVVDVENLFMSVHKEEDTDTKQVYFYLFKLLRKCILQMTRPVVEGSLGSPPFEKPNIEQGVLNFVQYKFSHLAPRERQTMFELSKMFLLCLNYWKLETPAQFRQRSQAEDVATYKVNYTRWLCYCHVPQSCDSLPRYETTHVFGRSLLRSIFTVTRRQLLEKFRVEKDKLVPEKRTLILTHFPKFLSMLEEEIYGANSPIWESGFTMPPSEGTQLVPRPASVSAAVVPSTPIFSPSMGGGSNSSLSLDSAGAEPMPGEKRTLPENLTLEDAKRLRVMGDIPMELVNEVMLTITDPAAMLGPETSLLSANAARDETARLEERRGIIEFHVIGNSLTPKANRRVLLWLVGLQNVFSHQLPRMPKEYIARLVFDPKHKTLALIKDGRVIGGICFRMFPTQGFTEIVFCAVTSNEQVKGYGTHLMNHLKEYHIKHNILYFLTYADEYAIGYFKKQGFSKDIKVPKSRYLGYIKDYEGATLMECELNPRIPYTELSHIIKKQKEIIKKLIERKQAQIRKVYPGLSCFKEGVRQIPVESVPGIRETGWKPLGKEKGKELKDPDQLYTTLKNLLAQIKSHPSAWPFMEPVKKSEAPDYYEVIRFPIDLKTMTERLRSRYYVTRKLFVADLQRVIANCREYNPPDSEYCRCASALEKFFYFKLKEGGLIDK
Assay [13] has as its target T3, Phosphatidylinositol 5-phosphate 4-kinase type-2 beta (Homo sapiens) (UniProt P78356).
T3 sequence (whole entry): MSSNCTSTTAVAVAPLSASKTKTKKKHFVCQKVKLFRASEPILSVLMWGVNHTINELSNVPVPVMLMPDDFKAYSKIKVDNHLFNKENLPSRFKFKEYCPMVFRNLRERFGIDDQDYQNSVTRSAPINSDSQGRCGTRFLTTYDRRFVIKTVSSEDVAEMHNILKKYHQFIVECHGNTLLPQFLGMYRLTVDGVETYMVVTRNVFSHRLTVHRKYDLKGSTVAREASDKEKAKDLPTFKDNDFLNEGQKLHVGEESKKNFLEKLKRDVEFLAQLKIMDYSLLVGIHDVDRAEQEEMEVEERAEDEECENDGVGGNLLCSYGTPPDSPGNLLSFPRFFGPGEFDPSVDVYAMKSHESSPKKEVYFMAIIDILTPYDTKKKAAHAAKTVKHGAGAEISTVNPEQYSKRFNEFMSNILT
As to the kind of experiment: Selectivity interaction (KinomeScan (DiscoverX)) EUB0001619a PIP4K2B. The following applies: at 1 µM.

Tyrosine-protein kinase Fgr (Homo sapiens), sequence (P09769 2-529 limits assumed): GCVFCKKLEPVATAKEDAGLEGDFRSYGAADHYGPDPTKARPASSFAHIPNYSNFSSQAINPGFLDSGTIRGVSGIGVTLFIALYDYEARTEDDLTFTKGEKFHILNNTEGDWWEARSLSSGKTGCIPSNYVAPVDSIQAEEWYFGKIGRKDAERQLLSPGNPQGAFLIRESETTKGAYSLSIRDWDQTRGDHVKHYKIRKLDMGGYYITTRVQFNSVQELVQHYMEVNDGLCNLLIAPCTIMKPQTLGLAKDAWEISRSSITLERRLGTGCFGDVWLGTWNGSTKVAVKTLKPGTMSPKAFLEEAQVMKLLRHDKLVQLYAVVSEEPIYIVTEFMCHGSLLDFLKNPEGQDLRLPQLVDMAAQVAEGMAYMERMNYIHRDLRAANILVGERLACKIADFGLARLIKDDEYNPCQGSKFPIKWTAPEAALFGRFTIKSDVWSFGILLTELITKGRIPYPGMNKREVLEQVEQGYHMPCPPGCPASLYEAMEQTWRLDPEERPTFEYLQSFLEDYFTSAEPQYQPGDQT

For the molecule `Cc1ccc(-c2ccc3c(ccc4sc5c(c43)NC[C@@H](C)NC5=O)n2)cn1`, the % of inhibition in assay [1] stood at 3%.

`C=CC(=O)Nc1cccc(C(=O)Nc2ccc(Nc3cc(-c4[nH]c(SC)nc4C)ccn3)cc2)c1`: the % of control in assay [2] (at 1 µM) was determined as 85%; in assay [2] (at 5 µM), 39%; in [3] (at 1 µM) it was 63%; in [3] (at 5 µM), 38%; in [4] (at 1 µM), 96%; in assay [4] (at 5 µM), 99%.

`O=C(NOC[C@H](O)CO)c1ccc(F)c(F)c1Nc1ccc(I)cc1F` came in with a % of control in [5] of 100%.

On to `CNC(=O)Nc1ccc(-c2nc(N3CC4CCC(C3)O4)c3cnn(C4CCC5(CC4)OCCO5)c3n2)cc1`, for which the % of inhibition in assay [6] worked out at 4%; in assay [7] it was 12%; in [8], 3%; in [9] it was 0%.

On to `CC[C@@H]1[C@H](F)C(=O)N[C@@H]1COc1nccc2cc(C(N)=O)c(OC)cc12` [ZIMLOVISERTIB], for which, in assay [10], the % of inhibition was -13.7%.

For `COc1cc(N(C)c2ccnc3ccc(C(F)(F)F)cc23)cc(OC)c1OC`, the % binding in [11] was 97%.

In the case of `CN(C)CCCOc1ccc(-c2cc(NCCCn3cccn3)nc(S(C)(=O)=O)n2)cc1`, the dTM in [12] is < 2 K.

Molecule `N#Cc1cccc(-c2c[nH]c3ncnc(N4CCOCC4)c23)c1` came in with a % of control in assay [13] of 23%.

(Values after ChEMBL document CHEMBL5465560, “Selectivity Literature for EUbOPEN Chemogenomic Library” (2024).)
